Data set [1] deals with T1, OX2R (Homo sapiens, UniProt O43614).
T1 construct: expressed in transfected cells
T1 sequence (O43614 1-444): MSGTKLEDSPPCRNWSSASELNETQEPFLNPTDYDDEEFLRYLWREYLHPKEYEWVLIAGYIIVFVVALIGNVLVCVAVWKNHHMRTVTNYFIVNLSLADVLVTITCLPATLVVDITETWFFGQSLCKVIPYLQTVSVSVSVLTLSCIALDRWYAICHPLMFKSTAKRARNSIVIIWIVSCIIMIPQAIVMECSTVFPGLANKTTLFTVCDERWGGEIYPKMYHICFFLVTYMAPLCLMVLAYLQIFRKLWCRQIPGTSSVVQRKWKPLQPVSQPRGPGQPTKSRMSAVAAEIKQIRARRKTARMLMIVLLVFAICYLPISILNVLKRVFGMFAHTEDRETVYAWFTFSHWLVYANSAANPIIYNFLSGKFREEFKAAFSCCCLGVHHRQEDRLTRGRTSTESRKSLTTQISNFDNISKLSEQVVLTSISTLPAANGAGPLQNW
Put plainly: FLIPR intracellular calcium antagonism test, HEK293-OX2R cells. It counts as cell-based. The note with it: Orexin A at EC70, read-out: hOX2R IC50. How it is done:
The change of intracellular calcium signal was detected by FLIPR, and the antagonism of the compounds on OX1R and OX2R receptors was evaluated by using IC50 value of the compounds as an index.
• Cell lines: Transfected HEK293-OX1R and HEK293-OX2R stable cell lines • HEK293-OX1R cell culture medium (DMEM, Invitrogen #11960-044, 10% serum Gibco #10099141, L-Glutamine 1×, Gibco #25030, sodium pyruvate 1×, Gibco #11360, Geneticin 300 μg/mL, Gibco #10131) • HEK293-OX2R cell culture medium (DMEM, Invitrogen #11960-044, 10% serum Gibco #10099141, L-Glutamine 1×, Gibco #25030, sodium pyruvate 1×, Gibco #11360, Geneticin 300 μg/mL, Gibco #10131, Blasticin 2 μg/mL, Invitrogen #R21001)
Experimental Steps and Methods: • a) Cell seeding (HEK293-OX1R and HEK293-OX2R cells) • 1) preheating the culture medium, trypsin and DPBS under water bath at 37° C.; pipetting and removing the medium of cell culture and washing same with 10 mL of DPBS; • 2) adding the preheated trypsin to a culture flask, rotating the culture flask so that the trypsin evenly covered the culture flask, and putting the culture flask in a 37° C., 5% CO2 incubator for digestion for 1-2 min; • 3) suspending the cells with 10-15 mL of medium for each T150 and centrifuging at 800 rpm for 5 min; resuspending the cells with 10 mL of medium, pipetting 1 mL of the cell suspension and counting with Vi-cell; • 4) diluting OX1R cells with medium to 5×10^5 cells/mL, and diluting OX2R cells with medium to 4×10^5 cells/mL, and adding the diluted cells to 384 plate (Greiner.781946) with a multi-channel pipette (50 μL/well, 25000 cells/well for OX1R cells, 20000 cells/well for OX2R cells); placing the cell plate in a 37° C., 5% CO2 incubator overnight. • b) Compound loading: • 1) diluting the compound to 20 mM with DMSO, 3-fold dilution, 8 gradients, duplicate wells, and adding same to a compound plate with an Echo liquid handler; then adding 20 μL of buffer to maintain the final concentration of DMSO of 0.1%. • c) FLIPR experiment: • 1) washing off the cell culture medium in the 384 plate with a vacuum pump, adding […] Direct fluorescent dye, incubating in 37° C., 5% CO2 incubator for 1 h, and balancing at room temperature for another 10 min. • 2) EC50 test: manually diluting Orexin A on ice, 3-fold dilution, 8 gradients, duplicate wells; preparing a DMSO plate and keep the DMSO concentration to be 0.5%; putting the cell plate, OrexinA plate, and DMSO plate in FLIPR respectively, and reading the fluorescence value. • 3) calculating the EC70 value based on the EC50 value of Orexin A; preparing a 5×EC70 solution, adding same to 384 compound plate with a multi-channel pipette, and storing on ice; • 4) putting the compound plate, 5×EC70 plate, cell plate, and FLIPR tip in sequence in FLIPR, running the program, and reading the fluorescence value. • d) Data analyzing: using Prism5.0 to analyze the data, and calculating the IC50 value of the compound.
For orientation: Calcium assays in cells follow changes in intracellular calcium, usually with a dye or a luminescent sensor.

The nature of data set [2]: Pharmacokinetic parameters in SD rat plasma. It counts as in vivo. How it is done: (§1) 4 healthy SD rats aged 6-9 weeks were selected and randomly divided into two groups, with 2 rats in each group. One group was given the test compound at 2 mg/kg by intravenous injection, and the other group was given the test compound at 10 mg/kg by intragastric administration. Plasma samples were collected at 0.083, 0.25, 0.5, 1.0, 2.0, 4.0, 6.0, 8.0, and 24 h after administration for the intravenous injection group and intragastric administration group, respectively. Quantitative analysis of all biological samples was carried out by LC-MS/MS method, and the WinNonlin™ Version 6.3 (Pharsight, Mountain View, CA) pharmacokinetic software was used to calculate the relevant pharmacokinetic parameters by the non-compartmental model linear logarithmic trapezoidal method. AUC0-last represents area under the plasma concentration-time curve from time zero to the last detectable concentration time point; p.o. represents oral; i.v. represents intravenous injection; T1/2 represents half-life; CL represents clearance rate; Vd represents apparent volume of distribution; Cmax represents peak concentration; Tmax represents time to peak; F % represents oral bioavailability.
as §1, with “healthy male” for “healthy”

Where [3] appears, read: male, Sprague-Dawley (SD), plasma, iv, i.v. 2 mg/kg.
Where [4] appears, read: male, Sprague-Dawley (SD), plasma, po, p.o. 10 mg/kg.

pIC50: −log10 of the molar value.

As to `COc1ccc(-n2nccn2)c(C(=O)N2C(c3nc4ccc(OC)cc4[nH]3)CC3CC32)c1` (stereo not drawn) [Compound 8], the pIC50 – broadly, the negative decadic logarithm of the IC50, by convention in mol/L – in data set [1] was 7.38. In data set [2] (setting [3]), the AUC(0-t) (in general, exposure summed from dosing to a finite time, without extrapolation to infinity) was determined as 1.76 µM·h; the clearance (usually the rate of elimination divided by the concentration) is 44 mL/min/kg; the half-life – broadly, the time needed for the level to fall by half in the phase considered – was 12 min. Besides, the Vd in data set [2] (male, Sprague-Dawley (SD), plasma, iv, i.v. 2 mg/kg, read-out: Vdss) was 0.57 L/kg. In addition, in data set [2] (setting [4]), the area under the curve AUC(0-t) is 1.45 µM·h; the highest level (Cmax) was 1030 nM; the time to peak (Tmax) (in general, the time at which the peak concentration occurs) was 15 min. In data set [2] (p.o. 10 mg/kg vs i.v. 2 mg/kg), this molecule gave an F of 17%.

The values above are taken from patent publication US12583841B2, “Tetrahydropyrrolocyclic compound and application thereof” (Breakthrough Pharmaceuticals Inc., priority 2021, dated 2026).
